Assay results published in US11124554B2, “Modified ligand-gated ion channels and methods of use” (Howard Hughes Medical Institute, priority 2016, dated 2021).
Read-outs that look alike come from different tables or passages of the source.

Assays:
[1] = target: T1, α7^Y115F,G175K-GlyR (Homo sapiens, UniProt P36544, G175K/Y115F); assay: Agonist potency at chimeric channel; assay type: cell-based
T1 construct: expressed in transfected cells

[2] = target: T2, α7-5HT3 (Homo sapiens, UniProt P36544, M226I/T225I); assay: Agonist potency (EC50), HEK cells expressing chimeric channel; assay type: cell-based, human α7 nAChR LBD, murine 5HT3 IPD
T2 construct: expressed in transfected cells; host or cells: HEK cells
T2 sequence (P36544 with tags, fused parts or gaps T225I/M226I): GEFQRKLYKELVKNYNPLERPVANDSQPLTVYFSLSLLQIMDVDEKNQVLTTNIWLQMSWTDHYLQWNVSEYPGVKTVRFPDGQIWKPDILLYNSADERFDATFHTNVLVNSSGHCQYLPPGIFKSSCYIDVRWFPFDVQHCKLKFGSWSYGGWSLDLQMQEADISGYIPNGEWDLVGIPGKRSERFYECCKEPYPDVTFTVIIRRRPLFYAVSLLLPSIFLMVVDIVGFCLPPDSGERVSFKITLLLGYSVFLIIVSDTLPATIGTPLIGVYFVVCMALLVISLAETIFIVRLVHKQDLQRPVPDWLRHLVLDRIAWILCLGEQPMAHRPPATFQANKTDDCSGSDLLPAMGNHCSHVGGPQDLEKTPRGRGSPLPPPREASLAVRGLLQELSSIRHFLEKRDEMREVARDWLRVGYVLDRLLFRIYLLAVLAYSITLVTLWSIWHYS

[3] = target: T3, α7^W77F,G175K,Y210F-GlyR (Homo sapiens, UniProt P36544, G175K/W77F/Y210F); assay: Agonist potency at chimeric channel; assay type: cell-based
T3 construct: expressed in transfected cells
T3 sequence (P36544 with tags, fused parts or gaps W77F/G175K/Y210F): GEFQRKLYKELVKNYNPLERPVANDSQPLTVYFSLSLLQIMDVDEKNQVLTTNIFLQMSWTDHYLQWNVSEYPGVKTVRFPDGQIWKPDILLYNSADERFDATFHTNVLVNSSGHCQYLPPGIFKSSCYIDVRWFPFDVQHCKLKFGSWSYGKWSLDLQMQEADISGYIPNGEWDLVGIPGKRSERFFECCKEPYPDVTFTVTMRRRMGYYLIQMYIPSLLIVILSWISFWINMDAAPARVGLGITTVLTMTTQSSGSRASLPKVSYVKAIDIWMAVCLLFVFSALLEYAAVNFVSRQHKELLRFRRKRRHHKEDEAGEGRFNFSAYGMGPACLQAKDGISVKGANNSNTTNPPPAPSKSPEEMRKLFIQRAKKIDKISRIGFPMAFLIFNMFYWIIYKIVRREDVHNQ

[4] = target: T4, α7^L131A-GlyR (Homo sapiens, UniProt P36544, L131A); assay: Agonist potency at chimeric channel (Table 9); assay type: cell-based
T4 construct: expressed in transfected cells
T4 sequence (P36544 with tags, fused parts or gaps L131A): as the sequence (P36544 with tags, fused parts or gaps W77F/G175K/Y210F) above, with F55W, L109A, K153G, F188Y counted along it

[5] = target: T5, α7^L131Q-GlyR (Homo sapiens, UniProt P36544, L131Q); assay: Agonist potency at chimeric channel (Table 9); assay type: cell-based
T5 construct: expressed in transfected cells
T5 sequence (P36544 with tags, fused parts or gaps L131Q): as the sequence (P36544 with tags, fused parts or gaps W77F/G175K/Y210F) above, with F55W, L109Q, K153G, F188Y counted along it

[6] = target: T6, α7^L131G-5HT3 HC (Homo sapiens, UniProt P36544, L131G, form not given); assay: Agonist potency at chimeric channel (Table 9); assay type: cell-based; details: read-out: Agonist potency
T6 construct: rows headed: Agonist potency; other: α75HT3 L131G HC; α75HT3 L131G HC; fused on or other part: 5-HT3A receptor ion pore domain at the C-terminus
T6 sequence (P36544 23-224 L131G limits assumed, form open): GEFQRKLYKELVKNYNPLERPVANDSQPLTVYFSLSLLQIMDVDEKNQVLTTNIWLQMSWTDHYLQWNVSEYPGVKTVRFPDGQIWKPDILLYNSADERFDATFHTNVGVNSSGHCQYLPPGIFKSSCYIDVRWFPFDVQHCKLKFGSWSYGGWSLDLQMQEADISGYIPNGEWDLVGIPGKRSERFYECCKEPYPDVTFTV

[7] = target: T7, α7^Q79G,Q139L,G175K-GlyR (Homo sapiens, UniProt P36544, G175K/Q139L/Q79G); assay: Agonist potency at chimeric channel; assay type: cell-based
T7 construct: expressed in transfected cells
T7 sequence (P36544 with tags, fused parts or gaps Q79G/Q139L/G175K): as the sequence (P36544 with tags, fused parts or gaps W77F/G175K/Y210F) above, with F55W, Q57G, Q117L, F188Y counted along it

[8] = target: T8, α7^G175K-GlyR (Homo sapiens, UniProt P36544, G175K); assay: Agonist potency at chimeric channel; assay type: cell-based
T8 construct: expressed in transfected cells
T8 sequence (P36544 with tags, fused parts or gaps G175K): as the sequence (P36544 with tags, fused parts or gaps W77F/G175K/Y210F) above, with F55W, F188Y counted along it

[9] = target: T9, α7^Q79A-5HT3 (Homo sapiens, UniProt P36544, M226I/Q79A/T225I); assay: Agonist potency (EC50), HEK cells expressing chimeric channel; assay type: cell-based, human α7 nAChR LBD, murine 5HT3 IPD; details: read-out: Mean EC50, α7^Q79A-5HT3
T9 construct: expressed in transfected cells; host or cells: HEK cells
T9 sequence (P36544 with tags, fused parts or gaps Q79A/T225I/M226I): as the sequence (P36544 with tags, fused parts or gaps T225I/M226I) above, with Q57A counted along it

[10] = target: T10, α7^L131M-GlyR (Homo sapiens, UniProt P36544, L131M); assay: Agonist potency at chimeric channel (Table 9); assay type: cell-based
T10 construct: expressed in transfected cells
T10 sequence (P36544 with tags, fused parts or gaps L131M): as the sequence (P36544 with tags, fused parts or gaps W77F/G175K/Y210F) above, with F55W, L109M, K153G, F188Y counted along it

[11] = target: T11, α7^L131G,Q139L-GlyR (Homo sapiens, UniProt P36544, L131G/Q139L); assay: Agonist potency at chimeric channel (Table 9); assay type: cell-based
T11 construct: expressed in transfected cells
T11 sequence (P36544 with tags, fused parts or gaps L131G/Q139L): as the sequence (P36544 with tags, fused parts or gaps W77F/G175K/Y210F) above, with F55W, L109G, Q117L, K153G, F188Y counted along it

[12] = target: T12, α7^L131G-GlyR (Homo sapiens, UniProt P36544, L131G); assay: Agonist potency at chimeric channel (Table 9); assay type: cell-based
T12 construct: expressed in transfected cells
T12 sequence (P36544 with tags, fused parts or gaps L131G): as the sequence (P36544 with tags, fused parts or gaps W77F/G175K/Y210F) above, with F55W, L109G, K153G, F188Y counted along it

[13] = target: T13, α7^W77F,Q79G,G175K-GlyR (Homo sapiens, UniProt P36544, G175K/Q79G/W77F); assay: Agonist potency at chimeric channel; assay type: cell-based
T13 construct: expressed in transfected cells
T13 sequence (P36544 with tags, fused parts or gaps W77F/Q79G/G175K): as the sequence (P36544 with tags, fused parts or gaps W77F/G175K/Y210F) above, with Q57G, F188Y counted along it

[14] = target: T14, α7^Q79S,L131G-GlyR (Homo sapiens, UniProt P36544, L131G/Q79S); assay: Agonist potency at chimeric channel (Table 9); assay type: cell-based
T14 construct: expressed in transfected cells
T14 sequence (P36544 with tags, fused parts or gaps Q79S/L131G): as the sequence (P36544 with tags, fused parts or gaps W77F/G175K/Y210F) above, with F55W, Q57S, L109G, K153G, F188Y counted along it

[15] = target: T15, α7^L131G,Y217F-GlyR (Homo sapiens, UniProt P36544, L131G/Y217F); assay: Agonist potency at chimeric channel (Table 9); assay type: cell-based
T15 construct: expressed in transfected cells
T15 sequence (P36544 with tags, fused parts or gaps L131G/Y217F): as the sequence (P36544 with tags, fused parts or gaps W77F/G175K/Y210F) above, with F55W, L109G, K153G, F188Y, Y195F counted along it

[16] = target: T16, α7^Q79G-GlyR (Homo sapiens, UniProt P36544, Q79G); assay: Agonist potency (EC50), HEK cells expressing chimeric channel; assay type: cell-based
T16 construct: expressed in transfected cells; host or cells: HEK cells
T16 sequence (P36544 with tags, fused parts or gaps Q79G): as the sequence (P36544 with tags, fused parts or gaps W77F/G175K/Y210F) above, with F55W, Q57G, K153G, F188Y counted along it

[17] = tested on: α7GlyR chimeric channels with G175K and A298G mutations; assay type: cell-based, human
[18] = target: T17, α7^G175K,Y210F-GlyR (Homo sapiens, UniProt P36544, G175K/Y210F); assay: Agonist potency at chimeric channel; assay type: cell-based
T17 construct: expressed in transfected cells
T17 sequence (P36544 with tags, fused parts or gaps G175K/Y210F): as the sequence (P36544 with tags, fused parts or gaps W77F/G175K/Y210F) above, with F55W counted along it

[19] = target: T18, α7GlyR R27D E41R Q79G Y115F (Homo sapiens, UniProt P36544, E41R/Q79G/R27D/Y115F); assay: Agonist potency at chimeric channel (Table 7); assay type: cell-based
T18 construct: expressed in transfected cells
T18 sequence (P36544 with tags, fused parts or gaps R27D/E41R/Q79G/Y115F): as the sequence (P36544 with tags, fused parts or gaps W77F/G175K/Y210F) above, with R5D, E19R, F55W, Q57G, Y93F, K153G, F188Y counted along it

[20] = target: T19, α7GlyR L131G D219A (Homo sapiens, UniProt P36544, D219A/L131G); assay: Agonist potency at chimeric channel (Table 9); assay type: cell-based
T19 construct: expressed in transfected cells
T19 sequence (P36544 with tags, fused parts or gaps L131G/D219A): as the sequence (P36544 with tags, fused parts or gaps W77F/G175K/Y210F) above, with F55W, L109G, K153G, F188Y, D197A counted along it

[21] = target: T20, α7^L131V-GlyR (Homo sapiens, UniProt P36544, L131V); assay: Agonist potency at chimeric channel (Table 9); assay type: cell-based
T20 construct: expressed in transfected cells
T20 sequence (P36544 with tags, fused parts or gaps L131V): as the sequence (P36544 with tags, fused parts or gaps W77F/G175K/Y210F) above, with F55W, L109V, K153G, F188Y counted along it

[22] = target: T21, α7^Q79G,Y115F,G175K-GlyR (Homo sapiens, UniProt P36544, G175K/Q79G/Y115F); assay: Agonist potency at chimeric channel; assay type: cell-based
T21 construct: expressed in transfected cells
T21 sequence (P36544 with tags, fused parts or gaps Q79G/Y115F/G175K): as the sequence (P36544 with tags, fused parts or gaps W77F/G175K/Y210F) above, with F55W, Q57G, Y93F, F188Y counted along it

[23] = target: T22, α7^Q79S-5HT3 (Homo sapiens, UniProt P36544, M226I/Q79S/T225I); assay: Agonist potency (EC50), HEK cells expressing chimeric channel; assay type: cell-based, human α7 nAChR LBD, murine 5HT3 IPD; details: read-out: Mean EC50, α7^Q79S-5HT3
T22 construct: expressed in transfected cells; host or cells: HEK cells
T22 sequence (P36544 with tags, fused parts or gaps Q79S/T225I/M226I): as the sequence (P36544 with tags, fused parts or gaps T225I/M226I) above, with Q57S counted along it

[24] = target: T23, α7^Q79S-GlyR (Homo sapiens, UniProt P36544, Q79S); assay: as above; assay type: cell-based
T23 construct: expressed in transfected cells; host or cells: HEK cells
T23 sequence (P36544 with tags, fused parts or gaps Q79S): as the sequence (P36544 with tags, fused parts or gaps W77F/G175K/Y210F) above, with F55W, Q57S, K153G, F188Y counted along it

[25] = target: T24, α7GlyR Q79G Y115F G175K Y210F (Homo sapiens, UniProt P36544, G175K/Q79G/Y115F/Y210F); assay: Agonist potency at chimeric channel; assay type: cell-based
T24 construct: expressed in transfected cells
T24 sequence (P36544 with tags, fused parts or gaps Q79G/Y115F/G175K/Y210F): as the sequence (P36544 with tags, fused parts or gaps W77F/G175K/Y210F) above, with F55W, Q57G, Y93F counted along it

[26] = target: T25, α7^Q79G,G175K-GlyR (Homo sapiens, UniProt P36544, G175K/Q79G); assay: Agonist potency at chimeric channel; assay type: cell-based
T25 construct: expressed in transfected cells
T25 sequence (P36544 with tags, fused parts or gaps Q79G/G175K): as the sequence (P36544 with tags, fused parts or gaps W77F/G175K/Y210F) above, with F55W, Q57G, F188Y counted along it

[27] = target: T26, α7^L141F,Y115F,G175K-GlyR (Homo sapiens, UniProt P36544, G175K/L141F/Y115F); assay: Agonist potency at chimeric channel; assay type: cell-based
T26 construct: expressed in transfected cells
T26 sequence (P36544 with tags, fused parts or gaps Y115F/L141F/G175K): as the sequence (P36544 with tags, fused parts or gaps W77F/G175K/Y210F) above, with F55W, Y93F, L119F, F188Y counted along it

[28] = target: T27, α7GlyR Q79S L131G Q139L Y217F (Homo sapiens, UniProt P36544, L131G/Q139L/Q79S/Y217F); assay: cell-based
T27 construct: expressed in transfected cells
T27 sequence (P36544 with tags, fused parts or gaps Q79S/L131G/Q139L/Y217F): as the sequence (P36544 with tags, fused parts or gaps W77F/G175K/Y210F) above, with F55W, Q57S, L109G, Q117L, K153G, F188Y, Y195F counted along it

[29] = read-out: Agonist potency; α7GlyR Q79G A298G G175K Y115F
[30] = read-out: Agonist potency; α7GlyR Q79G A298G P2161
[31] = read-out: Agonist potency; α7GlyR Q79G A298G Y115F K395 K396A
[32] = read-out: Agonist potency; α7GlyR Q79G G175K A298G
[33] = read-out: Agonist potency; α7GlyR Q79G W77F A298G

T1 sequence (P36544 with tags, fused parts or gaps Y115F/G175K): as the sequence (P36544 with tags, fused parts or gaps W77F/G175K/Y210F) above, with F55W, Y93F, F188Y counted along it

O=c1cccc2n1C[C@@H]1CNC[C@H]2C1 [Cytisine]
EC50 [1]: 7100 nM | EC50 ([2]; read-out: Mean EC50, α7-5HT3): 8200 nM | EC50 [3]: 5100 nM | EC50 [4]: 20600 nM | EC50 [5]: > 30000 nM | EC50 [6]: 11000 nM | EC50 [7]: 3240 nM | EC50 [8]: 400 nM | EC50 [9]: 4000 nM | EC50 [10]: 7000 nM | EC50 [11]: 12000 nM | EC50 [12]: 13100 nM | EC50 [13]: 6900 nM | EC50 [14]: 8100 nM | EC50 [15]: 30000 nM | EC50 [16]: 5600 nM | EC50 [17, 29]: 4600 nM | EC50 [17, 30]: 5500 nM | EC50 [17, 31]: > 30000 nM | EC50 [17, 32]: 134 nM | EC50 [17, 33]: 14100 nM | EC50 [18]: > 10000 nM | EC50 [19]: > 30000 nM | EC50 [20]: > 30000 nM | EC50 [21]: 4300 nM | EC50 [22]: > 10000 nM | EC50 [23]: 4400 nM | EC50 [24]: 2500 nM | EC50 [25]: > 30000 nM | EC50 [26]: 2500 nM | EC50 [27]: 4740 nM

Clc1ccc(C2CC3CCC2N3)cn1 (stereo not drawn) [Epibatidine]
EC50 [1]: 36 nM | EC50 ([2]; read-out: Mean EC50, α7-5HT3, HEK cells, Table 1): 53 nM | EC50 [3]: 380 nM | EC50 [4]: 27 nM | EC50 [5]: 27 nM | EC50 ([6]; α75HT3 L131G HC): 9 nM | EC50 [7]: 144 nM | EC50 [8]: 5 nM | EC50 ([9]; HEK cells, Table 1): 67 nM | EC50 [10]: 42 nM | EC50 [11]: 12 nM | EC50 [12]: 9 nM | EC50 [13]: 2600 nM | EC50 [14]: 7 nM | EC50 [28]: 22 nM | EC50 [15]: 15 nM | EC50 [16]: 69 nM | EC50 ([17]; α7GlyR Q79G A298G G175K Y115F; read-out: Agonist potency): 11 nM | EC50 ([17]; α7GlyR Q79G A298G P2161; read-out: Agonist potency): 50 nM | EC50 ([17]; α7GlyR Q79G A298G Y115F K395 K396A; read-out: Agonist potency): 150 nM | EC50 ([17]; α7GlyR Q79G G175K A298G; read-out: Agonist potency): 2.3 nM | EC50 ([17]; α7GlyR Q79G W77F A298G; read-out: Agonist potency): 370 nM | EC50 [18]: 650 nM | EC50 [19]: 267 nM | EC50 [20]: 160 nM | EC50 [21]: 210 nM | EC50 [22]: 220 nM | EC50 ([23]; HEK cells, Table 1): 44 nM | EC50 [24]: 24 nM | EC50 [25]: > 10000 nM | EC50 [26]: 37 nM | EC50 [27]: 144 nM

O=C(NC1CN2CCC1CC2)c1ccc(Cl)cc1 (stereo not drawn) [PNU-282987]
EC50 [1]: 100 nM | EC50 ([2]; read-out: Mean EC50, α7-5HT3): 220 nM | EC50 ([2]; read-out: α7-5HT3 EC50): 220 nM | EC50 [3]: > 40000 nM | EC50 [4]: 55 nM | EC50 [5]: 48 nM | EC50 [6]: 33 nM | EC50 [7]: 50 nM | EC50 [8]: 5 nM | EC50 [9]: 37 nM | EC50 [10]: 21 nM | EC50 [11]: 63 nM | EC50 [12]: 34 nM | EC50 [13]: 500 nM | EC50 [14]: 6 nM | EC50 [28]: 50 nM | EC50 [15]: 54 nM | EC50 [16]: 26 nM | EC50 [17, 29]: 9 nM | EC50 [17, 30]: 250 nM | EC50 [17, 31]: 110 nM | EC50 [17, 32]: 0.36 nM | EC50 [17, 33]: 1630 nM | EC50 [18]: 700 nM | EC50 [19]: 340 nM | EC50 [20]: 410 nM | EC50 [21]: 64 nM | EC50 [22]: 80 nM | EC50 [23]: 23 nM | EC50 [24]: 14 nM | EC50 [25]: > 1000 nM | EC50 [26]: 60 nM | EC50 [27]: 510 nM
